Assay results as given in patent EP0535269A1, “Pharmaceutical compositions containing thiazolidinedione derivatives” (TANABE SEIYAKU CO., LTD., priority 1991, dated 1993).

Assay: Bioavailability of a solution in a water-soluble polymer: plasma levels after oral administration
Format: in vivo
Conditions: dogs, control formulation: untreated original drug (20 µm) with equal amount of corn starch in gelatin capsule, 100 mg/Dog, HPLC (Fig. 4)
Procedure: 5-[(2,4-dioxothiazolidin-5-yl)methyl]-2-[(2-naphthyl)methyl]benzoxazole (3 g) was dissolved in polyethyleneglycol (average molecule weight: approximately 380-420, trade name: Macrogol-400, Sanyo Chemical Industries Ltd.) (100 ml) to provide the preparation of the present invention. Mixture of an equal amount of untreated original drug (particle size: 20 µm) and corn starch was encapsulated in a gelatin capsule to give a formulation used as a control.
Four dogs (10 - 15 kg) were used in this experiment. The preparation of the invention was administered to dogs orally at the dose of 10 mg/Dog. In the separate experiment, the control formulation was administered at 100 mg/Dog. The blood was taken from the dogs and the concentration of the active compound (I) in the plasma sample was assayed in the same manner as described in the above. The time-course of the plasma levels of the drug was plotted.
In the figure, closed circles represent the average plasma levels of the compound (I) following the administration of the solution of the invention, and semi-closed circles represent those following the administration of untreated original drug.

- plasma levels of the compound (I): extremely low
Compound: O=C1NC(=O)C(Cc2ccc3oc(Cc4ccc5ccccc5c4)nc3c2)S1 (stereo not shown) [raw material, 5-[(2,4-dioxothiazolidin-5-yl)methyl]-2-[(2-naphthyl)methyl]benzoxazole]
